Assay results as given in patent US20100099564A1, “HERBICIDE COMBINATION COMPRISING DIMETHOXYTRIAZINYL-SUBSTITUTED DIFLUOROMETHANESULFONYLANILIDES” (BAYER CROPSCIENCE AG, priority 2008, published 2010).
Values belong to the compound of their own block, whether it stands above or below them.

What was measured:
Format in all cases: in vivo
[1] = tested on: Triticum aestivum (TRZAS); assay: Post-emergence action, greenhouse pot test, visual scoring: TRZAS
Procedure: (§1) Seeds or rhizome pieces of mono- and dicotyledonous harmful and useful plants were placed in peat pots (diameter 4 cm) filled with sandy loam and then covered with soil. The pots were kept in a greenhouse under optimum conditions. In addition, harmful plants encountered in paddy rice cultivation were cultivated in pots with a water level 2 cm above the soil surface.
(§2) About three weeks after the start of the cultivation, the test plants were treated at the 2- to 3-leaf stage. The herbicides, formulated as powder or liquid concentrates, were, either alone or in the combinations according to the invention, sprayed in various dosages on to the green parts of the plants using an application rate of 600 l of water/ha (converted). For further cultivation of the plants, the pots were then again kept under optimum conditions in a greenhouse.
(§3) The visual scoring of the herbicidal effects was carried out in intervals up to 21 days after the treatment. Scoring was carried out in percent in comparison to the untreated control plants. 0%=no herbicidal activity, 100%=complete herbicidal activity=complete kill.
(§4) The percentages from the treatments with the herbicides alone (=individual application) and with the combinations according to the invention (=mixtures) were employed to calculate interactions using the method of Colby. When the observed efficacies of the mixtures exceed the formal sum of the values of the tests with individual applications, they also exceed the expected value according to Colby, which is calculated using the formula below (cf. S. R. Colby; in Weeds 15 (1967) pp. 20 to 22):
(§5) Here: • A, B=activity of components A and B in percent at a dosage of a and b g of ai/ha (=gramm of active substance per hectare), respectively. • E=expected value in % at a dosage of a+b g of ai/ha.
(§6) The combinations according to the invention of herbicides from group (A) with herbicides from group (B) were tested on a broad spectrum of important harmful plants (weed grasses, broad-leaved weeds/Cyperaceae) and useful plants: Triticum aestivum (TRZAS), Stellaria media (STEME), Lolium multiflorum (LOLMU), Veronica persica (VERPE), Alopecurus myosuroides (ALOMY), Matricaria inodora (MATIN), Brassica napus (BRSNW), Viola tricolor (VIOTR), Avena fatua (AVEFA), Amaranthus retroflexus (AMARE), Zea mays (ZEAMX), Pharbitis purpurea (PHBPU), Setaria viridis (SETVI), Fallopia (ex Polygonum) convolvulus (POLCO), Echinochloa crusgaffi (ECHCG), Abuthilon theophrasti (ABUTH), Cyperus esculentus (CYPES), Oryza sativa (ORYSA).
(§7) Of particular interest are the results shown in the tables (Tab.) below, where the following key is used: • (1) EPPO code (former Bayer code) for the treated plant (see above) • (2) Time of scoring: DAT (days after treatment) • (3) Component A tested (identifying number) • (4) Component B tested (identifying number) • (5) Dosage component A [g of ai/ha] • (6) Dosage component B [g of ai/ha] • (7) % activity found • (8) E value (calculated according to Colby; see above) • (9) Comments: “SYNERGY” =synergistic interaction (E value<% activity found); “SAFENING”=safener action on useful plant (E value>% activity found)

Viola tricolor (VIOTR) = assay: Post-emergence action, greenhouse pot test, visual scoring: VIOTR; settings: rate (6) 2
Procedure: as §1, §2, §3, §4, §5, §6, §7

Avena fatua (AVEFA) = assay: Post-emergence action, greenhouse pot test, visual scoring: AVEFA; settings: 21 DAT
Procedure: as §1, §2, §3, §4, §5, §6, §7

Zea mays (ZEAMX) = assay: Post-emergence action, greenhouse pot test, visual scoring: ZEAMX
Procedure: as §1, §2, §3, §4, §5, §6, §7

Oryza sativa (ORYSA) = assay: Post-emergence action, greenhouse pot test, visual scoring: ORYSA
Procedure: as §1, §2, §3, §4, §5, §6, §7

[2] = tested on: Fallopia (ex Polygonum) convolvulus (POLCO); assay: Post-emergence action, greenhouse pot test, visual scoring: POLCO; settings: 21 DAT
Procedure: as §1, §2, §3, §4, §5, §6, §7

Veronica persica (VERPE) = assay: Post-emergence action, greenhouse pot test, visual scoring: VERPE; settings: 21 DAT; rate (6) 2
Procedure: as §1, §2, §3, §4, §5, §6, §7

[3] = tested on: Cyperus esculentus (CYPES); assay: Post-emergence action, greenhouse pot test, visual scoring: CYPES; settings: 21 DAT; rate (6) 0.7
Procedure: as §1, §2, §3, §4, §5

[4] = tested on: Lolium multiflorum (LOLMU); assay: Post-emergence action, greenhouse pot test, visual scoring: LOLMU; settings: 21 DAT; rate (6) 5
Procedure: as §1, §2, §3, §4, §5, §6, §7

[5] = tested on: Pharbitis purpurea (PHBPU); assay: Post-emergence action, greenhouse pot test, visual scoring: PHBPU; settings: 21 DAT
Procedure: as §1, §2, §3, §4, §5, §6, §7

(7) % activity found (Oryza sativa (ORYSA); 10 DAT, rate (6) 2): 90% | (7) % activity found (Oryza sativa (ORYSA); 21 DAT, rate (6) 2): 70%
Structure (SMILES): COC(=O)c1ccc(I)cc1S(=O)(=O)NC(=O)Nc1nc(C)nc(OC)n1.[Na] [B7-16, methyl 4-iodo-2-[[[[(4-methoxy-6-methyl-1,3,5-triazin-2-yl)amino]carbonyl]amino]sulfonyl]benzoate sodium salt]
(7) % activity found ([1]; 10 DAT, rate (6) 2): 40% | (7) % activity found ([1]; 21 DAT, rate (6) 2): 20% | (7) % activity found ([1]; 21 DAT, rate (6) 6): 60% | (7) % activity found (Viola tricolor (VIOTR); 10 DAT): 70% | (7) % activity found (Viola tricolor (VIOTR); 21 DAT): 90% | (7) % activity found (Avena fatua (AVEFA); rate (6) 2): 10% | (7) % activity found (Zea mays (ZEAMX); 10 DAT, rate (6) 2): 30% | (7) % activity found (Zea mays (ZEAMX); 10 DAT, rate (6) 6): 20% | (7) % activity found (Zea mays (ZEAMX); 21 DAT, rate (6) 2): 0%

(7) % activity found (Oryza sativa (ORYSA); 10 DAT, rate (6) 6): 90%
Structure (SMILES): COC(=O)c1ccc(CNS(C)(=O)=O)cc1S(=O)(=O)NC(=O)Nc1nc(OC)cc(OC)n1 [B7-17, methyl 2-[[[[(4,6-dimethoxy-2-pyrimidinyl)amino]carbonyl]amino]sulfonyl]-4-[[(methylsulfonyl)amino]methyl]benzoate]
(7) % activity found ([1]; 10 DAT, rate (6) 2): 40% | (7) % activity found ([1]; 10 DAT, rate (6) 6): 60% | (7) % activity found ([1]; 21 DAT, rate (6) 2): 20% | (7) % activity found ([1]; 21 DAT, rate (6) 6): 70% | (7) % activity found (Avena fatua (AVEFA); rate (6) 2): 20% | (7) % activity found (Avena fatua (AVEFA); rate (6) 6): 70% | (7) % activity found (Zea mays (ZEAMX); 10 DAT, rate (6) 6): 40% | (7) % activity found ([2]; rate (6) 2): 40% | (7) % activity found ([2]; rate (6) 6): 50%

(7) % activity found (Oryza sativa (ORYSA); 10 DAT, rate (6) 0.7): 50% | (7) % activity found (Oryza sativa (ORYSA); 10 DAT, rate (6) 2): 70% | (7) % activity found (Oryza sativa (ORYSA); 21 DAT, rate (6) 2): 40%
Structure (SMILES): COC(=O)c1csc(C)c1S(=O)(=O)NC(=O)n1nc(OC)n(C)c1=O [B8-3, methyl 4-[[[(4,5-dihydro-3-methoxy-4-methyl-5-oxo-1H-1,2,4-triazol-1-yl)carbonyl]amino]sulfonyl]-5-methyl-3-thiophenecarboxylate]
(7) % activity found ([1]; 21 DAT, rate (6) 2): 30% | (7) % activity found (Veronica persica (VERPE)): 40% | (7) % activity found (Avena fatua (AVEFA); rate (6) 0.7): 50% | (7) % activity found (Zea mays (ZEAMX); 21 DAT, rate (6) 2): 20% | (7) % activity found [3]: 0%

Structure (SMILES): COc1cnc(OC)n2nc(NS(=O)(=O)c3c(OCC(F)F)cccc3C(F)(F)F)nc12 [B9-6, 2-(2,2-difluoroethoxy)-N-(5,8-dimethoxy[1,2,4]triazolo[1,5-c]pyrimidin-2-yl)-6-(trifluoromethyl)benzenesulfonamide]
(7) % activity found ([1]; 10 DAT, rate (6) 15): 10% | (7) % activity found ([1]; 21 DAT, rate (6) 15): 0% | (7) % activity found [4]: 20% | (7) % activity found (Zea mays (ZEAMX); 10 DAT, rate (6) 5): 0% | (7) % activity found (Zea mays (ZEAMX); 10 DAT, rate (6) 15): 30% | (7) % activity found ([5]; rate (6) 5): 10% | (7) % activity found ([5]; rate (6) 15): 30%
